Test: Amount of lipid peroxide in salad oil heated at 180° C. with oxygen bubbling (Test Example 1, Table 1)
Set-up: Amount of lipid peroxide: unit not given here
Settings: 0.2 mg/ml in salad oil, oxygen 2 ml/sec, 40 minutes; for Amount of lipid peroxide: no additive 65.2, non-treated 10.1
Method: A commercially sold salad oil (a product by Showa Sangyo Co., Ltd.) was pipetted 5 ml each into test tubes. Then various kinds of proanthocyanidins shown in Table 1 below were added thereto a concentration of 0.2 mg/ml and dissolved by stirring. The test tubes were kept in an 180° C. thermostatic oil bath and oxygen gas was bubbled into them at a rate of 2 ml/sec. 40 mintues thereafter, the amount of lipid peroxide in the salad oil was measured by the method shown in Yagi's Vitamins, Vol. 49, pp. 403-405. Used as controls were said salad oil added with no proanthocyanidin (control I) and those added with a commercial catechin, a gallocatechin obtained as a by-product in Preparation Example 5 and an epigallocatechin gallate, which are the monomers forming a structural unit of proanthocyanidins (control II). These control salad oil samples were similarly treated and the amount of lipid peroxide was similarly measured, the results being shown in Table 1.

Structure (SMILES) | Lipid peroxide rise inhibition rate [%] | Amount of lipid peroxide
O=C(O[C@@H]1Cc2c(O)cc(O)cc2O[C@@H]1c1cc(O)c(O)c(O)c1)c1cc(O)c(O)c(O)c1 [Epigallocatechin gallate, reference compound] | 35 | 45.0
Oc1cc(O)c2c(c1)OC(c1ccc(O)c(O)c1)C(O)C2c1c(O)cc(O)c2c1OC(c1ccc(O)c(O)c1)C(O)C2c1c(O)cc(O)c2c1OC(c1ccc(O)c(O)c1)C(O)C2c1c(O)cc(O)c2c1OC(c1ccc(O)c(O)c1)C(O)C2 (centres unmarked) [Tetrameric procyanidin] | 62 | 29.1
O=C(OC1Cc2c(O)cc(O)c(C3c4c(O)cc(O)cc4OC(c4cc(O)c(O)c(O)c4)C3OC(=O)c3cc(O)c(O)c(O)c3)c2OC1c1cc(O)c(O)c(O)c1)c1cc(O)c(O)c(O)c1 (centres unmarked) [prodelphinidin B-2 gallic acid diester] | 100 | 10.1
Oc1cc(O)c2c(c1)OC1(c3ccc(O)c(O)c3)Oc3cc(O)c4c(c3C2C1O)OC(c1ccc(O)c(O)c1)C(O)C4 (centres unmarked) [Dimeric procyanidin A-2, procyanidin A-2] |  | 25.0
Oc1cc(O)c2c(c1)OC(c1cc(O)c(O)c(O)c1)C(O)C2c1c(O)cc(O)c2c1OC(c1cc(O)c(O)c(O)c1)C(O)C2c1c(O)cc(O)c2c1OC(c1ccc(O)c(O)c1)C(O)C2 (centres unmarked) [Trimeric prodelphinidin] | 74 | 22.9
Oc1cc(O)c2c(c1)OC(c1ccc(O)c(O)c1)C(O)C2c1c(O)cc(O)c2c1OC(c1ccc(O)c(O)c1)C(O)C2 (centres unmarked) [Dimeric procyanidin B-2, procyanidin B-2] |  | 22.4
Oc1cc(O)c2c(c1)O[C@H](c1cc(O)c(O)c(O)c1)[C@@H](O)[C@@H]2c1c(O)cc(O)c2c1O[C@H](c1cc(O)c(O)c(O)c1)[C@@H](O)C2 [Dimeric prodelphinidin B-3, prodelphinidin B-3] | 85 | 17.2
Oc1cc(O)c2c(c1)O[C@H](c1cc(O)c(O)c(O)c1)[C@@H](O)C2 [Gallocatechin, gallocatechin, reference compound] | 32 | 44.7
Oc1cc(O)c2c(c1)O[C@H](c1ccc(O)c(O)c1)[C@@H](O)C2 [Commercial d-catechin, d-catechin, reference compound] |  | 54.7
O=C(OC1Cc2c(O)cc(O)c(C3c4c(O)cc(O)cc4OC(c4ccc(O)c(O)c4)C3OC(=O)c3cc(O)c(O)c(O)c3)c2OC1c1ccc(O)c(O)c1)c1cc(O)c(O)c(O)c1 (centres unmarked) [procyanidin B-2 gallic acid diester] | 98 | 10.5

— US4797421A, “Antioxidant comprising proanthocyanidin as principal component” (Kikkoman Corporation, priority 1987, dated 1989)
